According to patent US11541028B2, “Peptide pharmaceuticals for treatment of NASH and other disorders” (Mederis Diabetes LLC, priority 2018, dated 2023):
Numbered stars: 1 amine (or outer) side, 2 acyl side, 3 side chain; on linkers, the order of the positions; unused ones are H or OH. Bridge positions count the residues as written; N and C are the ends. Square brackets hold non-standard residues; d marks the D form. Side chains are listed from the residue outwards. Peptide text beside a SMILES is read from it. * marks the point of attachment. βGlcA(1-O-hexadecyl) = CCCCCCCCCCCCCCCCO[C@@H]1O[C@H](C(=O)*)[C@@H](O)[C@H](O)[C@H]1O; GlcA(1β-O-tetradecyl) = CCCCCCCCCCCCCCO[C@@H]1O[C@H](C(=O)*)[C@@H](O)[C@H](O)[C@H]1O; γGlu = O=C(O)[C@H](CCC(=O)[*:2])N[*:1]; εLys = N[C@@H](CCCCN[*:1])C(=O)[*:2]; Aib = CC(C)(N)C(=O)O

Key:
[1] = target: T1, human GLP-1 receptor (Homo sapiens, UniProt P43220); assay: DiscoveRx LeadHunter cellular assay, cAMP stimulation, GLP-1 receptor in CHO cells; type: cell-based; conditions: human GLP-1 receptor in CHO cells (DiscoveRx); read-out: EC50 cAMP GLP-1 R
T1 construct: host or cells: CHO cells
T1 sequence (P43220 24-463): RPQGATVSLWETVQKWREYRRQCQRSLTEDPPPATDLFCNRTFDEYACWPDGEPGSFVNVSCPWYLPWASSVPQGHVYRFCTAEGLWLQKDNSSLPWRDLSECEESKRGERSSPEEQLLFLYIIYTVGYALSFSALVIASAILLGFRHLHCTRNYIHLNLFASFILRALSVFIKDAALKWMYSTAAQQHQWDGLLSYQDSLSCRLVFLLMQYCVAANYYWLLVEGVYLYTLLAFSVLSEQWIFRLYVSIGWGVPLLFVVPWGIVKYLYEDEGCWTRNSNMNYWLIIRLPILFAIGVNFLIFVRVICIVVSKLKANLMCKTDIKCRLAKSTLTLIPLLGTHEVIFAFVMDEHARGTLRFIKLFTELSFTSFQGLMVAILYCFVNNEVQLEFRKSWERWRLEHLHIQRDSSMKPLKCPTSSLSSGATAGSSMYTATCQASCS

[2] = target: T2, human glucagon receptor (Homo sapiens, UniProt P47871); assay: DiscoveRx LeadHunter cellular assay, cAMP stimulation, glucagon receptor in CHO cells; type: cell-based
T2 construct: host or cells: CHO cells
T2 sequence (P47871 26-477): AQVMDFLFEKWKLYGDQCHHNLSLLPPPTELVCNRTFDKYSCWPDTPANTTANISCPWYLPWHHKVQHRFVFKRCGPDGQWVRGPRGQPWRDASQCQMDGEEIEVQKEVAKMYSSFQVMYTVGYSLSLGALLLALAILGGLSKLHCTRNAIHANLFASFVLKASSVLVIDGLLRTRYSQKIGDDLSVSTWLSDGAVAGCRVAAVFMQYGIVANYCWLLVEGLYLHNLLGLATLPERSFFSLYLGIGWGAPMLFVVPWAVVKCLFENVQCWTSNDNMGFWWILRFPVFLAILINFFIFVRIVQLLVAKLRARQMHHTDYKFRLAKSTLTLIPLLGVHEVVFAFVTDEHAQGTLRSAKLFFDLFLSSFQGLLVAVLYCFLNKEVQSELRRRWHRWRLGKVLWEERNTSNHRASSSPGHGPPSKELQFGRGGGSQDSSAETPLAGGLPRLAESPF

Row | Compound | EC50 [1] | EC50 [2]
1 | CCCCCCCCCCCCCCCCO[C@@H]1O[C@H](C(=O)NCCCC[C@H](NC(=O)[C@H](C)NC(=O)[C@H](C)NC(=O)[C@H](CCC(N)=O)NC(=O)[C@@H]2CCCCNC(=O)CC[C@H](NC(=O)[C@H](CO)NC(=O)[C@H](Cc3ccc(O)cc3)NC(=O)[C@H](CC(=O)O)NC(=O)[C@H](CO)NC(=O)[C@@H](NC(=O)[C@H](Cc3ccccc3)NC(=O)[C@@H](NC(=O)CNC(=O)[C@H](CCC(N)=O)NC(=O)C(C)(C)NC(=O)[C@@H](N)Cc3c[nH]cn3)[C@@H](C)O)[C@@H](C)O)C(=O)N[C@@H](Cc3ccc(O)cc3)C(=O)N[C@@H](CC(C)C)C(=O)N[C@@H](CC(=O)O)C(=O)N2)C(=O)N[C@@H](CCC(=O)O)C(=O)N[C@@H](Cc2ccccc2)C(=O)N[C@H](C(=O)N[C@@H](CCC(N)=O)C(=O)N[C@@H](Cc2c[nH]c3ccccc23)C(=O)N[C@@H](CC(C)C)C(=O)N[C@@H](CC(C)C)C(=O)N[C@@H](CCC(N)=O)C(=O)N[C@H](C(N)=O)[C@@H](C)O)[C@@H](C)CC)[C@@H](O)[C@H](O)[C@H]1O [EU-A1745] (H-H[Aib]QGTFTSDYSEYLDKQAAK(βGlcA(1-O-hexadecyl))EFIQWLLQT-NH2; lactam 12-16; N-terminus assumed) | 1.02 nM | 10 nM
2 | CCCCCCCCCCCCCCO[C@@H]1O[C@H](C(=O)NCCCC[C@H](N)C(=O)NCCCC[C@H](NC(=O)[C@H](C)NC(=O)[C@H](C)NC(=O)[C@H](CCC(N)=O)NC(=O)[C@@H]2CCCCNC(=O)CC[C@H](NC(=O)[C@H](CO)NC(=O)[C@H](Cc3ccc(O)cc3)NC(=O)[C@H](CC(=O)O)NC(=O)[C@H](CO)NC(=O)[C@@H](NC(=O)[C@H](Cc3ccccc3)NC(=O)[C@@H](NC(=O)CNC(=O)[C@H](CCC(N)=O)NC(=O)C(C)(C)NC(=O)[C@@H](N)Cc3c[nH]cn3)[C@@H](C)O)[C@@H](C)O)C(=O)N[C@@H](Cc3ccc(O)cc3)C(=O)N[C@@H](CC(C)C)C(=O)N[C@@H](CC(=O)O)C(=O)N2)C(=O)N[C@@H](CCC(=O)O)C(=O)N[C@@H](Cc2ccccc2)C(=O)N[C@H](C(=O)N[C@@H](CCC(N)=O)C(=O)N[C@@H](Cc2c[nH]c3ccccc23)C(=O)N[C@@H](CC(C)C)C(=O)N[C@@H](CC(C)C)C(=O)N[C@@H](CCC(N)=O)C(=O)N[C@H](C(N)=O)[C@@H](C)O)[C@@H](C)CC)[C@@H](O)[C@H](O)[C@H]1O [EU-A1784] (H-H[Aib]QGTFTSDYSEYLDKQAAK([εLys-GlcA(1β-O-tetradecyl)])EFIQWLLQT-NH2; lactam 12-16; N-terminus assumed) | 0.048 nM | 1.91 nM
3 | CCCCCCCCCCCCCCCCO[C@@H]1O[C@H](C(=O)NCCCC[C@H](N)C(=O)NCCCC[C@H](NC(=O)[C@H](C)NC(=O)[C@H](C)NC(=O)[C@H](CCC(N)=O)NC(=O)[C@@H]2CCCCNC(=O)CC[C@H](NC(=O)[C@H](CO)NC(=O)[C@H](Cc3ccc(O)cc3)NC(=O)[C@H](CC(=O)O)NC(=O)[C@H](CO)NC(=O)[C@@H](NC(=O)[C@H](Cc3ccccc3)NC(=O)[C@@H](NC(=O)CNC(=O)[C@H](CCC(N)=O)NC(=O)C(C)(C)NC(=O)[C@@H](N)Cc3c[nH]cn3)[C@@H](C)O)[C@@H](C)O)C(=O)N[C@@H](Cc3ccc(O)cc3)C(=O)N[C@@H](CC(C)C)C(=O)N[C@@H](CC(=O)O)C(=O)N2)C(=O)N[C@@H](CCC(=O)O)C(=O)N[C@@H](Cc2ccccc2)C(=O)N[C@H](C(=O)N[C@@H](CCC(N)=O)C(=O)N[C@@H](Cc2c[nH]c3ccccc23)C(=O)N[C@@H](CC(C)C)C(=O)N[C@@H](CC(C)C)C(=O)N[C@@H](CCC(N)=O)C(=O)N[C@H](C(N)=O)[C@@H](C)O)[C@@H](C)CC)[C@@H](O)[C@H](O)[C@H]1O [EU-A1785] (H-H[Aib]QGTFTSDYSEYLDKQAAK([εLys-βGlcA(1-O-hexadecyl)])EFIQWLLQT-NH2; lactam 12-16; N-terminus assumed) | 0.239 nM | 5.14 nM
4 | CCCCCCCCCCCCCCO[C@@H]1O[C@H](C(=O)N[C@@H](CCC(=O)NCCCC[C@H](NC(=O)[C@H](C)NC(=O)[C@H](C)NC(=O)[C@H](CCC(N)=O)NC(=O)[C@@H]2CCCCNC(=O)CC[C@H](NC(=O)[C@H](CO)NC(=O)[C@H](Cc3ccc(O)cc3)NC(=O)[C@H](CC(=O)O)NC(=O)[C@H](CO)NC(=O)[C@@H](NC(=O)[C@H](Cc3ccccc3)NC(=O)[C@@H](NC(=O)CNC(=O)[C@H](CCC(N)=O)NC(=O)C(C)(C)NC(=O)[C@@H](N)Cc3c[nH]cn3)[C@@H](C)O)[C@@H](C)O)C(=O)N[C@@H](Cc3ccc(O)cc3)C(=O)N[C@@H](CC(C)C)C(=O)N[C@@H](CC(=O)O)C(=O)N2)C(=O)N[C@@H](CCC(=O)O)C(=O)N[C@@H](Cc2ccccc2)C(=O)N[C@H](C(=O)N[C@@H](CCC(N)=O)C(=O)N[C@@H](Cc2c[nH]c3ccccc23)C(=O)N[C@@H](CC(C)C)C(=O)N[C@@H](CC(C)C)C(=O)N[C@@H](CCC(N)=O)C(=O)N[C@H](C(N)=O)[C@@H](C)O)[C@@H](C)CC)C(=O)O)[C@@H](O)[C@H](O)[C@H]1O [EU-A1787] (H-H[Aib]QGTFTSDYSEYLDKQAAK([γGlu-GlcA(1β-O-tetradecyl)])EFIQWLLQT-NH2; lactam 12-16; N-terminus assumed) | 0.246 nM | 10 nM
5 | CCCCCCCCCCCCCCCCO[C@@H]1O[C@H](C(=O)N[C@@H](CCC(=O)NCCCC[C@H](NC(=O)[C@H](C)NC(=O)[C@H](C)NC(=O)[C@H](CCC(N)=O)NC(=O)[C@@H]2CCCCNC(=O)CC[C@H](NC(=O)[C@H](CO)NC(=O)[C@H](Cc3ccc(O)cc3)NC(=O)[C@H](CC(=O)O)NC(=O)[C@H](CO)NC(=O)[C@@H](NC(=O)[C@H](Cc3ccccc3)NC(=O)[C@@H](NC(=O)CNC(=O)[C@H](CCC(N)=O)NC(=O)C(C)(C)NC(=O)[C@@H](N)Cc3c[nH]cn3)[C@@H](C)O)[C@@H](C)O)C(=O)N[C@@H](Cc3ccc(O)cc3)C(=O)N[C@@H](CC(C)C)C(=O)N[C@@H](CC(=O)O)C(=O)N2)C(=O)N[C@@H](CCC(=O)O)C(=O)N[C@@H](Cc2ccccc2)C(=O)N[C@H](C(=O)N[C@@H](CCC(N)=O)C(=O)N[C@@H](Cc2c[nH]c3ccccc23)C(=O)N[C@@H](CC(C)C)C(=O)N[C@@H](CC(C)C)C(=O)N[C@@H](CCC(N)=O)C(=O)N[C@H](C(N)=O)[C@@H](C)O)[C@@H](C)CC)C(=O)O)[C@@H](O)[C@H](O)[C@H]1O [EU-A1788] (H-H[Aib]QGTFTSDYSEYLDKQAAK([γGlu-βGlcA(1-O-hexadecyl)])EFIQWLLQT-NH2; lactam 12-16; N-terminus assumed) | 0.232 nM | 10 nM
6 | CCCCCCCCCCCCCCO[C@@H]1O[C@H](C(=O)NCCCC[C@H](NC(=O)[C@H](C)NC(=O)[C@H](C)NC(=O)[C@H](CCC(N)=O)NC(=O)[C@H](CO)NC(=O)[C@H](CC(=O)O)NC(=O)[C@@H]2CCCCNC(=O)CC[C@H](NC(=O)[C@H](CC(=O)O)NC(=O)[C@H](CO)NC(=O)[C@@H](NC(=O)[C@H](Cc3ccccc3)NC(=O)[C@@H](NC(=O)CNC(=O)[C@H](CCC(N)=O)NC(=O)C(C)(C)NC(=O)[C@@H](N)Cc3c[nH]cn3)[C@@H](C)O)[C@@H](C)O)C(=O)N[C@@H](CO)C(=O)N[C@@H](CCCCN)C(=O)N[C@@H](Cc3ccc(O)cc3)C(=O)N2)C(=O)N[C@@H](CCC(=O)O)C(=O)N[C@@H](Cc2ccccc2)C(=O)N[C@H](C(=O)N[C@@H](CCC(=O)O)C(=O)N[C@@H](Cc2c[nH]c3ccccc23)C(=O)N[C@@H](CC(C)C)C(=O)N[C@@H](CC(C)C)C(=O)N[C@@H](CCC(N)=O)C(=O)N[C@H](C(N)=O)[C@@H](C)O)[C@@H](C)CC)[C@@H](O)[C@H](O)[C@H]1O [EU-A1847] (H-H[Aib]QGTFTSDESKYKDSQAAK(GlcA(1β-O-tetradecyl))EFIEWLLQT-NH2; lactam 10-14; N-terminus assumed) | 0.032 nM | 1.95 nM

Second part, the molecule after the results:

Row | EC50 [1] | EC50 [2] | Compound
7 | 0.316 nM | 0.475 nM | CCCCCCCCCCCCCCO[C@@H]1O[C@H](C(=O)NCCCC[C@@H]2NC(=O)[C@@H](NC(=O)[C@H](CC(=O)O)NC(=O)[C@H](CC(C)C)NC(=O)[C@H](Cc3ccc(O)cc3)NC(=O)[C@H](CCCCN)NC(=O)[C@H](CO)NC(=O)[C@H](Cc3ccc(O)cc3)NC(=O)[C@H](CC(=O)O)NC(=O)[C@H](CO)NC(=O)[C@@H](NC(=O)[C@H](Cc3ccccc3)NC(=O)[C@@H](NC(=O)CNC(=O)[C@H](CCC(N)=O)NC(=O)C(C)(C)NC(=O)[C@@H](N)Cc3c[nH]cn3)[C@@H](C)O)[C@@H](C)O)CCC(=O)NCCCC[C@@H](C(=O)N[C@@H](CCC(=O)O)C(=O)N[C@@H](Cc3ccccc3)C(=O)N[C@H](C(=O)N[C@@H](CCC(=O)O)C(=O)N[C@@H](Cc3c[nH]c4ccccc34)C(=O)N[C@@H](CC(C)C)C(=O)N[C@@H](CC(C)C)C(=O)N[C@@H](CCC(N)=O)C(=O)N[C@H](C(N)=O)[C@@H](C)O)[C@@H](C)CC)NC(=O)[C@H](C)NC(=O)[C@H](C)NC2=O)[C@@H](O)[C@H](O)[C@H]1O [EU-A1841] (H-H[Aib]QGTFTSDYSKYLDEK(GlcA(1β-O-tetradecyl))AAKEFIEWLLQT-NH2; lactam 16-20; N-terminus assumed)
8 | 1.21 nM | 2.11 nM | CCCCCCCCCCCCCCCCO[C@@H]1O[C@H](C(=O)NCCCC[C@@H]2NC(=O)[C@@H](NC(=O)[C@H](CC(=O)O)NC(=O)[C@H](CC(C)C)NC(=O)[C@H](Cc3ccc(O)cc3)NC(=O)[C@H](CCCCN)NC(=O)[C@H](CO)NC(=O)[C@H](Cc3ccc(O)cc3)NC(=O)[C@H](CC(=O)O)NC(=O)[C@H](CO)NC(=O)[C@@H](NC(=O)[C@H](Cc3ccccc3)NC(=O)[C@@H](NC(=O)CNC(=O)[C@H](CCC(N)=O)NC(=O)C(C)(C)NC(=O)[C@@H](N)Cc3c[nH]cn3)[C@@H](C)O)[C@@H](C)O)CCC(=O)NCCCC[C@@H](C(=O)N[C@@H](CCC(=O)O)C(=O)N[C@@H](Cc3ccccc3)C(=O)N[C@H](C(=O)N[C@@H](CCC(=O)O)C(=O)N[C@@H](Cc3c[nH]c4ccccc34)C(=O)N[C@@H](CC(C)C)C(=O)N[C@@H](CC(C)C)C(=O)N[C@@H](CCC(N)=O)C(=O)N[C@H](C(N)=O)[C@@H](C)O)[C@@H](C)CC)NC(=O)[C@H](C)NC(=O)[C@H](C)NC2=O)[C@@H](O)[C@H](O)[C@H]1O [EU-A1842] (H-H[Aib]QGTFTSDYSKYLDEK(βGlcA(1-O-hexadecyl))AAKEFIEWLLQT-NH2; lactam 16-20; N-terminus assumed)
